Results on 27 compounds are retold here after patent US12624044B2, “SMARCA degraders and uses thereof” (Kymera Therapeutics, Inc., priority 2019, dated 2026).

This assay has as its target SMARCA2 (Homo sapiens, UniProt P51531). The assay can be described thus: MSD SMARCA2 degradation in NCI-H1299 cell line (24 h). Type of assay: cell-based. To be noted: for DC50: NCI-H1299 cells, read-out: SMARCA2 MSD H1299 degradation 24 h: External Abs-DC50; for Dmax: NCI-H1299, NCI-H1299 cells. The arrangement: HC: NCI-H1299 cells treated with DMSO; host or cells: NCI-H1299. Put shortly:
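NCI-H1299 cells treated 24 h with a 3-fold, 9-point compound dilution series, then lysed in RIPA with protease inhibitor. SMARCA2 in lysate-coated MSD plates detected with rabbit anti-SMARCA2 (0.3 ug/ml) and SULFO-TAG secondary. Relative SMARCA2 level normalized between DMSO-treated H1299 cells and SMARCA2-negative A2780 cells; Dmax % binned A–D.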

Molecules are shown by their SMILES.

Chain of SMARCA2 (P51531 whole entry): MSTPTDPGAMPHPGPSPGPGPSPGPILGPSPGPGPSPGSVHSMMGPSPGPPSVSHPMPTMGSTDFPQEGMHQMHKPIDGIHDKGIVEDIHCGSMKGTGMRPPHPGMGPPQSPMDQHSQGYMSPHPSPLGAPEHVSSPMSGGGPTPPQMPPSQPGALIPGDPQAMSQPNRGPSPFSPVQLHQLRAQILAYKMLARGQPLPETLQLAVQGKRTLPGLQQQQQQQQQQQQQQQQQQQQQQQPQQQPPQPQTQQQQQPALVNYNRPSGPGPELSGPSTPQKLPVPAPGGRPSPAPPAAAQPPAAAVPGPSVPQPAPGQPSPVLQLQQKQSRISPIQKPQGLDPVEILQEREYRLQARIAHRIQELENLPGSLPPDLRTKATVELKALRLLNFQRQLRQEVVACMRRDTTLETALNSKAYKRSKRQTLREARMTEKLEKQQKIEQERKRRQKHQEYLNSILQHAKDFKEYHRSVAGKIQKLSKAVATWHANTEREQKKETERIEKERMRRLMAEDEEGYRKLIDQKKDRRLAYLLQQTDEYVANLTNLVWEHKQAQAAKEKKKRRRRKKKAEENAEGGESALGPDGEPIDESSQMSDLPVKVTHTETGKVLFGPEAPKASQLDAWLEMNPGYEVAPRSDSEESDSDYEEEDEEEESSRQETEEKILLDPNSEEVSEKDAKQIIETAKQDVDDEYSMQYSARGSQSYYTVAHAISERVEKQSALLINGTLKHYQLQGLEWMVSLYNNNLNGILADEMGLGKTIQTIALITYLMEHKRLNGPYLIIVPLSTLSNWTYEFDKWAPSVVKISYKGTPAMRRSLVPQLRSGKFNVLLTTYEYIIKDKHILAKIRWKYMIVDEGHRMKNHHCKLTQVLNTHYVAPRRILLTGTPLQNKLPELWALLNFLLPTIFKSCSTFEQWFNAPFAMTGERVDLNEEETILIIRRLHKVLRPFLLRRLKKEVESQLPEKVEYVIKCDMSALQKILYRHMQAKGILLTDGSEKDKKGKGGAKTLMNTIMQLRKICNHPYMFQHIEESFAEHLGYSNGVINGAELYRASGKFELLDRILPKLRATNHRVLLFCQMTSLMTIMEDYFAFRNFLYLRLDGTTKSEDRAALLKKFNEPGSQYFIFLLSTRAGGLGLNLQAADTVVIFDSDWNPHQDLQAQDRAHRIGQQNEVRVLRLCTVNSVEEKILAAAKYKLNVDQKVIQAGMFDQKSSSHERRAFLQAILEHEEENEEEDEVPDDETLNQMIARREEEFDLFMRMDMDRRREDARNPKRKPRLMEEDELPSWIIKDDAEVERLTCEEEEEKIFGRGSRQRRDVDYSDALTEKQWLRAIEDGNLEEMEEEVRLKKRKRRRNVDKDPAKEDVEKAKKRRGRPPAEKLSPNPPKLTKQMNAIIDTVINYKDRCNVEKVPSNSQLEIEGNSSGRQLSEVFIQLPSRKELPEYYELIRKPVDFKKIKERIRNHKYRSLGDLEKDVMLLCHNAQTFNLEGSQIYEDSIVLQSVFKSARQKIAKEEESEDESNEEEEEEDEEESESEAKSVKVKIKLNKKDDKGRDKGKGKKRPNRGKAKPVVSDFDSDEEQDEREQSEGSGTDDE

With `CN[C@@H](C)C(=O)N[C@H](C(=O)N1Cc2cc(OCCOCCOCCNC(=O)CCCCCCCCOc3ccnc(N4C[C@H]5C[C@@H]4CN5/C=C/C(=O)c4ccccc4O)c3)ccc2C[C@H]1C(=O)N[C@@H]1CCCc2ccccc21)C(C)(C)C` [I-205], the DC50 is above 1000 nM. Regarding `CN[C@@H](C)C(=O)N[C@H](C(=O)N1Cc2cc(OCCOCCOCCOCCOCCOCCNC(=O)c3ccc(C(C)n4cc(-c5cc(-c6ccccc6O)nnc5N)cn4)cc3)ccc2C[C@H]1C(=O)N[C@@H]1CCCc2ccccc21)C(C)(C)C` (stereo partly drawn) [I-206], the DC50 is above 1000 nM. For `CN[C@@H](C)C(=O)N[C@H](C(=O)N1Cc2cc(OCCOCCOCCOCCOCCNC(=O)c3ccc(C(C)n4cc(-c5cc(-c6ccccc6O)nnc5N)cn4)cc3)ccc2C[C@H]1C(=O)N[C@@H]1CCCc2ccccc21)C(C)(C)C` (stereo partly drawn) [I-207], the DC50 was above 1000 nM.

For `CN[C@@H](C)C(=O)N[C@H](C(=O)N1Cc2cc(OCCOCCOCCOCCNC(=O)c3ccc(C(C)n4cc(-c5cc(-c6ccccc6O)nnc5N)cn4)cc3)ccc2C[C@H]1C(=O)N[C@@H]1CCCc2ccccc21)C(C)(C)C` (stereo partly drawn) [I-208], the DC50 is above 1000 nM. Consider `CN[C@@H](C)C(=O)N[C@H](C(=O)N1Cc2cc(OCCOCCOCCNC(=O)c3ccc(C(C)n4cc(-c5cc(-c6ccccc6O)nnc5N)cn4)cc3)ccc2C[C@H]1C(=O)N[C@@H]1CCCc2ccccc21)C(C)(C)C` (stereo partly drawn) [I-209], for which the DC50 is above 1000 nM.

For `Cc1ncsc1-c1ccc(CNC(=O)[C@@H]2C[C@@H](O)CN2C(=O)[C@@H](NC(=O)CCCCCN2CCC(c3cnc(N4C5CCC4CN(c4cc(-c6ccccc6O)nnc4N)C5)nc3)CC2)C(C)(C)C)cc1` [I-210, (2S,4R)-1-[(2S)-2-[6-[4-[2-[3-[3-amino-6-(2-hydroxyphenyl)pyridazin-4-yl]-3,8-diazabicyclo[3.2.1]octan-8-yl]pyrimidin-5-yl]-1-piperidyl]hexanoylamino]-3,3-dimethyl-butanoyl]-4-hydroxy-N-[[4-(4-methylthiazol-5-yl)phenyl]methyl]pyrrolidine-2-carboxamide], the maximal degradation (Dmax) is above 90% and the DC50 lay within 501 to 1000 nM. Turning to `Cc1ncsc1-c1ccc(CNC(=O)[C@@H]2C[C@@H](O)CN2C(=O)[C@@H](NC(=O)CN2CCC(c3cnc(N4C5CCC4CN(c4cc(-c6ccccc6O)nnc4N)C5)nc3)CC2)C(C)(C)C)cc1` [I-211, (2S,4R)-1-[(2S)-2-[[2-[4-[2-[3-[3-amino-6-(2-hydroxyphenyl)pyridazin-4-yl]-3,8-diazabicyclo[3.2.1]octan-8-yl]pyrimidin-5-yl]-1-piperidyl]acetyl]amino]-3,3-dimethyl-butanoyl]-4-hydroxy-N-[[4-(4-methylthiazol-5-yl)phenyl]methyl]pyrrolidine-2-carboxamide], the Dmax is above 90% and the DC50 was in the range of 100 to 500 nM. Turning to `Cc1ncsc1-c1ccc(CNC(=O)[C@@H]2C[C@@H](O)CN2C(=O)[C@@H](NC(=O)CCCCCN(C)Cc2ccc(N3CCN(c4cc(-c5ccccc5O)nnc4N)CC3)cc2)C(C)(C)C)cc1` [I-212, (2S,4R)-1-[(2S)-2-[6-[[4-[4-[3-amino-6-(2-hydroxyphenyl)pyridazin-4-yl]piperazin-1-yl]phenyl]methyl-methyl-amino]hexanoylamino]-3,3-dimethyl-butanoyl]-4-hydroxy-N-[[4-(4-methylthiazol-5-yl)phenyl]methyl]pyrrolidine-2-carboxamide], the maximal degradation (Dmax) was below 50% and the DC50 was above 1000 nM.

On to `Cc1ncsc1-c1ccc(CNC(=O)[C@@H]2C[C@@H](O)CN2C(=O)[C@@H](NC(=O)CCCCCCCCCN(C)Cc2ccc(N3CCN(c4cc(-c5ccccc5O)nnc4N)CC3)cc2)C(C)(C)C)cc1` [I-213], for which the Dmax is 70 to 90% and the DC50 fell in the range of 501 to 1000 nM. Take `Cc1ncsc1-c1ccc(CNC(=O)[C@@H]2C[C@@H](O)CN2C(=O)[C@@H](NC(=O)CCCCCCCCCN2CCC(Cn3cc(-c4cc(-c5ccccc5O)nnc4N)cn3)CC2)C(C)(C)C)cc1` [I-214]: the Dmax is above 90% and the DC50 lay within 501 to 1000 nM.

As for `Cc1ncsc1-c1ccc(CNC(=O)[C@@H]2C[C@@H](O)CN2C(=O)[C@@H](NC(=O)CCCCCN2CCC(Cn3cc(-c4cc(-c5ccccc5O)nnc4N)cn3)CC2)C(C)(C)C)cc1` [I-215, (2S,4R)-1-((S)-2-(6-(4-((4-(3-amino-6-(2-hydroxyphenyl)pyridazin-4-yl)-1H-pyrazol-1-yl)methyl)piperidin-1-yl)hexanamido)-3,3-dimethylbutanoyl)-4-hydroxy-N-(4-(4-methylthiazol-5-yl)benzyl)pyrrolidine-2-carboxamide], the greatest degradation seen (Dmax) is below 50% and the DC50 was above 1000 nM. For `Cc1ncsc1-c1ccc(CNC(=O)[C@@H]2C[C@@H](O)CN2C(=O)[C@@H](NC(=O)CCCCCCCN(C)Cc2ccc(N3CCN(c4cc(-c5ccccc5O)nnc4N)CC3)cc2)C(C)(C)C)cc1` [I-216], in that order: 70 to 90% and 501 to 1000 nM. Regarding `Cc1ncsc1-c1ccc(CNC(=O)[C@@H]2C[C@@H](O)CN2C(=O)[C@@H](NC(=O)CCCCCCCN2CCC(Cn3cc(-c4cc(-c5ccccc5O)nnc4N)cn3)CC2)C(C)(C)C)cc1` [I-217], the Dmax was above 90% and the DC50 is above 1000 nM. Take `Cc1ncsc1-c1ccc(CNC(=O)[C@@H]2C[C@@H](O)CN2C(=O)[C@@H](NC(=O)COCCOCCOCCNC(=O)CCCOc2cccc(N3C[C@H]4C[C@@H]3CN4/C=C/C(=O)c3ccccc3O)n2)C(C)(C)C)cc1` [I-218]: the DC50 was above 1000 nM. On to `Cc1ncsc1-c1ccc(CNC(=O)[C@@H]2C[C@@H](O)CN2C(=O)[C@@H](NC(=O)COCCOCCOCCNC(=O)CCCCCCCCOc2ccnc(N3C[C@H]4C[C@@H]3CN4/C=C/C(=O)c3ccccc3O)c2)C(C)(C)C)cc1` [I-220], for which the DC50 was above 1000 nM. Regarding `Cc1ncsc1-c1ccc(CNC(=O)[C@@H]2C[C@@H](O)CN2C(=O)[C@@H](NC(=O)COCCOCCOCCOCCOCCOCCNC(=O)CCCCCCCCOc2ccnc(N3C[C@H]4C[C@@H]3CN4/C=C/C(=O)c3ccccc3O)c2)C(C)(C)C)cc1` [I-221], the DC50 was above 1000 nM.

Consider `Cc1ncsc1-c1ccc(CNC(=O)[C@@H]2C[C@@H](O)CN2C(=O)[C@@H](NC(=O)COCCOCCOCCOCCOCCNC(=O)CCCCCCCCOc2ccnc(N3C[C@H]4C[C@@H]3CN4/C=C/C(=O)c3ccccc3O)c2)C(C)(C)C)cc1` [I-222], for which the DC50 is above 1000 nM.

Consider `Cc1ncsc1-c1ccc(CNC(=O)[C@@H]2C[C@@H](O)CN2C(=O)[C@@H](NC(=O)COCCOCCOCCOCCNC(=O)CCCCCCCCOc2ccnc(N3C[C@H]4C[C@@H]3CN4/C=C/C(=O)c3ccccc3O)c2)C(C)(C)C)cc1` [I-223], for which the DC50 was above 1000 nM. With `Cc1ncsc1-c1ccc(CNC(=O)[C@@H]2C[C@@H](O)CN2C(=O)[C@@H](NC(=O)COCCOCCOCCNC(=O)c2ccc(C(C)n3cc(-c4cc(-c5ccccc5O)nnc4N)cn3)cc2)C(C)(C)C)cc1` (stereo partly drawn) [I-224], the DC50 was above 1000 nM. `Cc1ncsc1-c1ccc(CNC(=O)[C@@H]2C[C@@H](O)CN2C(=O)[C@@H](NC(=O)COCCOCCOCCOCCOCCOCCNC(=O)c2ccc(C(C)n3cc(-c4cc(-c5ccccc5O)nnc4N)cn3)cc2)C(C)(C)C)cc1` (stereo partly drawn) [I-225]: the DC50 is above 1000 nM.

Turning to `Cc1ncsc1-c1ccc(CNC(=O)[C@@H]2C[C@@H](O)CN2C(=O)[C@@H](NC(=O)COCCOCCOCCOCCOCCNC(=O)c2ccc(C(C)n3cc(-c4cc(-c5ccccc5O)nnc4N)cn3)cc2)C(C)(C)C)cc1` (stereo partly drawn) [I-226], the DC50 was above 1000 nM.

For the compound `Cc1ncsc1-c1ccc(CNC(=O)[C@@H]2C[C@@H](O)CN2C(=O)[C@@H](NC(=O)COCCOCCOCCOCCNC(=O)c2ccc(C(C)n3cc(-c4cc(-c5ccccc5O)nnc4N)cn3)cc2)C(C)(C)C)cc1` (stereo partly drawn) [I-227], the DC50 was above 1000 nM. As for `Cc1ncsc1-c1ccc(CNC(=O)[C@@H]2C[C@@H](O)CN2C(=O)[C@@H](NC(=O)COCCOCCOCCNC(=O)CCCCCCCCOc2ccc(N3C[C@H]4C[C@@H]3CN4/C=C/C(=O)c3ccccc3O)nc2)C(C)(C)C)cc1` [I-228], the DC50 is above 1000 nM. For the compound `Cc1ncsc1-c1ccc(CNC(=O)[C@@H]2C[C@@H](O)CN2C(=O)[C@@H](NC(=O)COCCOCCOCCOCCOCCOCCNC(=O)CCCCCCCCOc2ccc(N3C[C@H]4C[C@@H]3CN4/C=C/C(=O)c3ccccc3O)nc2)C(C)(C)C)cc1` [I-229], the DC50 was above 1000 nM. Take `Cc1ncsc1-c1ccc(CNC(=O)[C@@H]2C[C@@H](O)CN2C(=O)[C@@H](NC(=O)COCCOCCOCCOCCOCCNC(=O)CCCCCCCCOc2ccc(N3C[C@H]4C[C@@H]3CN4/C=C/C(=O)c3ccccc3O)nc2)C(C)(C)C)cc1` [I-230]: the DC50 was above 1000 nM.

On to `Cc1ncsc1-c1ccc(CNC(=O)[C@@H]2C[C@@H](O)CN2C(=O)[C@@H](NC(=O)COCCOCCOCCOCCNC(=O)CCCCCCCCOc2ccc(N3C[C@H]4C[C@@H]3CN4/C=C/C(=O)c3ccccc3O)nc2)C(C)(C)C)cc1` [I-231], for which the 50% degradation concentration (DC50) was above 1000 nM.

On to `COc1cc(C(=O)NCCCN2CCN(Cc3ccc(-c4cc(-c5ccccc5O)nnc4N)cc3)CC2)ccc1NC(=O)[C@@H]1N[C@@H](CC(C)(C)C)[C@](C#N)(c2ccc(Cl)cc2F)[C@H]1c1cccc(Cl)c1F` [I-232, (2R,3S,4R,5S)—N-(4-((3-(4-(4-(3-amino-6-(2-hydroxyphenyl)pyridazin-4-yl)benzyl)piperazin-1-yl)propyl)carbamoyl)-2-methoxyphenyl)-3-(3-chloro-2-fluorophenyl)-4-(4-chloro-2-fluorophenyl)-4-cyano-5-neopentylpyrrolidine-2-carboxamide], for which the Dmax was below 50% and the DC50 is above 1000 nM.
